{
  "source": "patent US7396534B2",
  "about": "“Cosmetic compositions containing Nigrospora sphaerica extracts” (Unilever Home & Personal Care USA, division of Conopco, Inc., priority 2004, dated 2008)",
  "key": {"[1]": {"tested_on": "skin from 8-month old pigmented pigs", "experiment": "Pig skin organ culture, 14C-thiouracil incorporation (new melanin synthesis)", "type": "cell-based", "details": "1.4 mg/ml (10 mM), pig skin biopsies, three day incubation", "method": "Organ Culture Method Waste skin from 8-month old pigmented pigs was shaved to remove hairs and washed thoroughly to remove debris and reduce microbial content. The cleaned skin was then dermatomed to approximately 1-mm thickness×75-cm^2 and placed in tissue culture flasks containing Dulbecco's Modified Eagle's Medium (DMEM Cat#1188507) containing penicillin (100-units/ml), streptomycin (100-ug/ml), kanamycin (200-ug/ml), […]-mM), and fungizone (0.5-ug/ml). All flasks were incubated overnight at 37° C. in the presence of 5% carbon dioxide. This allowed the skin to equilibrate for 18 hours prior to the addition of melanin inhibitors. Areas of the skin that had scratches, erythema, or uneven pigmentation were discarded. The following morning, the skin was punched into 4-mm diameter biopsies and transferred to a 96-well tissue culture plate. To each well containing a biopsy, 180-microliters of fresh DMEM containing penicillin (100-units/ml), streptomycin (100-ug/ml), […]-mM), hydrocortisone (100-μg/ml) and 0.4-μCi/ml ^14C-thiouracil (Moravek Biochemicals) was added along with 20-microliters of natural extract. […] Samples were mixed several times to ensure even dispersion, sealed, and assessed for radiolabel incorporation using a Packard TopCount scintillation counter. […]"}, "[2]": {"tested_on": "MelanoDerm tissue equivalent model (MEL-300) containing melanocytes obtained from dark skin individuals", "experiment": "MelanoDerm tissue equivalent model, melanin content", "type": "cell-based, human", "details": "14 micro-g/ml (100 uM); 14-day period, relative to untreated or vehicle control", "method": "MelanoDerm Tissue Model Method\nA MelanoDerm tissue equivalent model (MEL-300 from Mat Tek, Ashland, Mass.) containing melanocytes obtained from dark skin individuals was utilized to confirm the results obtained in the pig organ culture. MelanoDerms were cultured as per the supplier instructions.\n[…] Positive control was included, i.e., kojic acid, which is a known skin lightening agent. During each medium change, a portion of the waste was analyzed for levels of lactate dehydrogenase as an indicator of cellular toxicity and stress. At no time was the level of lactate dehydrogenase above the vehicle control solvents (water or ethanol).\nDetermination of melanin content within each MelanoDerm was performed using the assay provided by the manufacturer. Each MelanoDerm was homogenized in 450-microliters of buffer (1% SDS, 0.05-mM EDTA, 10-mM Tris-HCl, pH 6.8) containing 20-microliters of Proteinase K (5 mg/ml) and incubated overnight at 45° C. […] The optical density of the top phase was determined (405-nm) following extraction of the sample with 100-microliters of chloroform:methanol (2:1) and centrifugation (10,000 g) for ten minutes. Optical density readings relative to the untreated or vehicle control (water or ethanol) were then calculated."}},
  "data": [
    {"smiles": "O=c1cc(CO)occ1O", "note": "[Kojic Acid]", "values": [
      {"measurement": "% Radiolabel Reduction", "setting": "[1]", "value": 56, "unit": "%"},
      {"measurement": "% Melanin Reduction", "setting": "[2]", "value": 9.5, "unit": "%"}
    ]}
  ]
}
